We go through 21 molecules from patent publication US12612360B2 (Sanofi, priority 2020, dated 2026).

For the experiment, the target named is T1, ERα (Homo sapiens, UniProt P03372).
T1 construct: host or cells: MCF7
T1 sequence (P03372 1-595): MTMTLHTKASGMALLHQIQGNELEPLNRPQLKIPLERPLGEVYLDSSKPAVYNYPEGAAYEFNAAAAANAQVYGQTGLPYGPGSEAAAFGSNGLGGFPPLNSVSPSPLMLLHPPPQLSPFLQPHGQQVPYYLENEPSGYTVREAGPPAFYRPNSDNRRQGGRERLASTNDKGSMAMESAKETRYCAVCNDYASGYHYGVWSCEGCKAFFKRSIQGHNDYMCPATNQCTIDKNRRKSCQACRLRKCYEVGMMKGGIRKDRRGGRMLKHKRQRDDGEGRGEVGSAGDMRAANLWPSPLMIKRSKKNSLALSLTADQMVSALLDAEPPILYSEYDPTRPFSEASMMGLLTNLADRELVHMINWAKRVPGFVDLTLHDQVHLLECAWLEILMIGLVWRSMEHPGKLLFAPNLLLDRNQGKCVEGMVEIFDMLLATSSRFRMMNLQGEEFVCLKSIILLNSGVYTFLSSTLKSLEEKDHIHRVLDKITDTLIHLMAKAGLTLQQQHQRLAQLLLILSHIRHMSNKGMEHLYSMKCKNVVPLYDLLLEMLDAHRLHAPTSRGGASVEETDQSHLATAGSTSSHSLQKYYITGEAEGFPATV
In words: Estrogen receptor degradation activity: breast cancer cell ERα in cell western assay (MCF7 cells). The experiment is classed as cell-based. The following applies: for % Degradation At 0.3 μM: 4 hours, relative to fulvestrant 0.1 μM positive control; for DC50: 4 hours post compound addition, concentration which degrades 50% of the estrogen receptor, read-out: Degradation IC50. In short, it runs like this:
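In-cell western readout: ERα immunofluorescence (Alexa 488) normalised to DNA signal (Syto-64) after formalin fixation. Compounds dosed for 4 h on MCF7 cells in stripped-serum, phenol-red-free medium over nine 1:5 steps, 0.3 to […] final; fulvestrant 0.1 μM control. IC50 in nM for 50% ERα degradation.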

In the case of `Cc1cc(F)ccc1C1=C(c2ccc(C=C3CN(CCCF)C3)c(F)c2F)c2ccc(C(=O)O)cc2CCC1` [Example 152, 9-(2,3-difluoro-4-((1-(3-fluoropropyl)azetidin-3-ylidene)methyl)phenyl)-8-(4-fluoro-2-methylphenyl)-6,7-dihydro-5H-benzo[7]annulene-3-carboxylic acid], the “% Degradation At 0.3 μM” value worked out at 93% and the DC50 came out at 0.2 nM.
As to `Cc1cc(Cl)ccc1C1=C(c2ccc(C=C3CN(CCCF)C3)cc2)c2ccc(C(=O)O)cc2CCC1` [Example 89, 8-(4-chloro-2-methylphenyl)-9-(4-((1-(3-fluoropropyl)azetidin-3-ylidene)methyl)phenyl)-6,7-dihydro-5H-benzo[7]annulene-3-carboxylic acid], the “% Degradation At 0.3 μM” value was found to be 98% and the DC50 worked out at 0.2 nM.
Take `O=C(O)c1ccc2c(c1)CCCC(c1ccc(F)cc1F)=C2c1c(F)cc(C=C2CN(CCCF)C2)cc1F` [Example 52, 9-(2,6-difluoro-4-((1-(3-fluoropropyl)azetidin-3-ylidene)methyl)phenyl)-8-(2,4-difluorophenyl)-6,7-dihydro-5H-benzo[7]annulene-3-carboxylic acid]: the “% Degradation At 0.3 μM” value is listed as 97% and the DC50 stood at 0.3 nM.
`O=C(O)c1ccc2c(c1)CCCC(c1c(F)ccc3c1CCC3)=C2c1ccc(C=C2CN(CCCF)C2)cc1` [Example 6, 8-(5-fluoro-2,3-dihydro-1H-inden-4-yl)-9-(4-((1-(3-fluoropropyl)azetidin-3-ylidene)methyl)phenyl)-6,7-dihydro-5H-benzo[7]annulene-3-carboxylic acid]: the “% Degradation At 0.3 μM” value is 92% and the DC50 amounted to 0.4 nM.
Regarding `CC1CCC(C2=C(c3ncc(C=C4CN(CCCF)C4)cc3F)c3ccc(C(=O)O)cc3CCC2)CC1` (mixture of isomers) [Example 188, 9-(3-fluoro-5-((1-(3-fluoropropyl)azetidin-3-ylidene)methyl)pyridin-2-yl)-8-(4-methylcyclohexyl)-6,7-dihydro-5H-benzo[7]annulene-3-carboxylic acid], the “% Degradation At 0.3 μM” value is recorded as 89% and the DC50 is 1.8 nM.
With `Cc1cc(F)ccc1C1=C(c2ccc(C=C3CN(CCCF)C3)cc2C#N)c2ccc(C(=O)O)cc2CCC1` [Example 139, 9-(2-cyano-4-((1-(3-fluoropropyl)azetidin-3-ylidene)methyl)phenyl)-8-(4-fluoro-2-methylphenyl)-6,7-dihydro-5H-benzo[7]annulene-3-carboxylic acid], the “% Degradation At 0.3 μM” value was determined as 97% and the DC50 was 3.1 nM.
Taken in the same sequence, the figures for `CC1CCc2cc(C(=O)O)ccc2C(c2ccc(C=C3CN(CCCF)C3)cc2)=C1c1ccc(Cl)cc1` (single isomer, unassigned) [Example 179, 8-(4-chlorophenyl)-9-(4-((1-(3-fluoropropyl)azetidin-3-ylidene)methyl)phenyl)-7-methyl-6,7-dihydro-5H-benzo[7]annulene-3-carboxylic acid] were 91% and 1.4 nM.
As to `COc1cc(C2=C(c3ccc(C=C4CN(CCCF)C4)cc3)c3ccc(C(=O)O)cc3CCC2)c(F)cn1` [Example 156, 8-(5-fluoro-2-methoxypyridin-4-yl)-9-(4-((1-(3-fluoropropyl)azetidin-3-ylidene)methyl)phenyl)-6,7-dihydro-5H-benzo[7]annulene-3-carboxylic acid], the “% Degradation At 0.3 μM” value was 89% and the DC50 came out at 0.6 nM.
For `O=C(O)c1ccc2c(c1)CCCC(CC1CCC1)=C2c1ccc(C=C2CN(CCCF)C2)cc1` [Example 169, 8-(cyclobutylmethyl)-9-(4-((1-(3-fluoropropyl)azetidin-3-ylidene)methyl)phenyl)-6,7-dihydro-5H-benzo[7]annulene-3-carboxylic acid], the “% Degradation At 0.3 μM” value stood at 90% and the DC50 stood at 0.3 nM.
On the same counts, the results for `O=C(O)c1ccc2c(c1)CCCC(CCc1ccccc1)=C2c1ccc(C=C2CN(CCCF)C2)cc1` [Example 168, 9-(4-((1-(3-fluoropropyl)azetidin-3-ylidene)methyl)phenyl)-8-phenethyl-6,7-dihydro-5H-benzo[7]annulene-3-carboxylic acid] are 95% and 0.3 nM.
On the same counts, the results for `Cc1cccc(C2=C(c3ccc(C=C4CN(CCCF)C4)cc3)c3ccc(C(=O)O)cc3CCC2)c1Cl` [Example 76, 8-(2-chloro-3-methylphenyl)-9-(4-((1-(3-fluoropropyl)azetidin-3-ylidene)methyl)phenyl)-6,7-dihydro-5H-benzo[7]annulene-3-carboxylic acid] are 94% and 0.5 nM.
Regarding `[2H]C([2H])(CC(F)F)N1CC(=Cc2ccc(C3=C(c4ccc(Cl)cc4Cl)CCCc4cc(C(=O)O)ccc43)cc2)C1` [Example 117, 8-(2,4-dichlorophenyl)-9-(4-((1-(3,3-difluoropropyl-1,1-d2)azetidin-3-ylidene)methyl)phenyl)-6,7-dihydro-5H-benzo[7]annulene-3-carboxylic acid], the “% Degradation At 0.3 μM” value was determined as 90% and the DC50 was 0.9 nM.
On to `CCOc1ccc(C2=C(c3ccc(C=C4CN(CCCF)C4)cc3)c3ccc(C(=O)O)cc3CCC2)cc1C(F)(F)F` [Example 149, 8-(4-ethoxy-3-(trifluoromethyl)phenyl)-9-(4-((1-(3-fluoropropyl)azetidin-3-ylidene)methyl)phenyl)-6,7-dihydro-5H-benzo[7]annulene-3-carboxylic acid], for which the “% Degradation At 0.3 μM” value stood at 87% and the DC50 amounted to 0.4 nM.
`CCc1ccccc1C1=C(c2ccc(C=C3CN(CCCF)C3)cc2)c2ccc(C(=O)O)cc2CCC1` [Example 86, 8-(2-ethylphenyl)-9-(4-((1-(3-fluoropropyl)azetidin-3-ylidene)methyl)phenyl)-6,7-dihydro-5H-benzo[7]annulene-3-carboxylic acid]: the “% Degradation At 0.3 μM” value came to 92% and the DC50 was found to be 0.2 nM.
On the same counts, the results for `O=C(O)c1ccc2c(c1)CCCC(c1cccc3c1CCC3)=C2c1ccc(C=C2CN(CCC(F)F)C2)cc1` [Example 163, 9-(4-((1-(3,3-difluoropropyl)azetidin-3-ylidene)methyl)phenyl)-8-(2,3-dihydro-1H-inden-4-yl)-6,7-dihydro-5H-benzo[7]annulene-3-carboxylic acid] are 98% and 0.8 nM.
With `O=C(O)c1ccc2c(c1)CCCC(c1ccc(Cl)cc1F)=C2c1ccc(C=C2CN(CCCF)C2)cc1` [Example 58, 8-(4-chloro-2-fluorophenyl)-9-(4-((1-(3-fluoropropyl)azetidin-3-ylidene)methyl)phenyl)-6,7-dihydro-5H-benzo[7]annulene-3-carboxylic acid], the “% Degradation At 0.3 μM” value turned out to be 99% and the DC50 was 0.2 nM.
`Cc1c(C2=C(c3ccc(Cl)cc3Cl)CCCc3cc(C(=O)O)ccc32)ccc(C=C2CN(CCCF)C2)c1F` [Example 63, 8-(2,4-dichlorophenyl)-9-(3-fluoro-4-((1-(3-fluoropropyl)azetidin-3-ylidene)methyl)-2-methylphenyl)-6,7-dihydro-5H-benzo[7]annulene-3-carboxylic acid]: the “% Degradation At 0.3 μM” value is 90% and the DC50 amounted to 0.7 nM.
Taken in the same sequence, the figures for `Cc1cc(C=C2CN(CCCF)C2)cc(F)c1C1=C(c2ccc(F)cc2F)CCCc2cc(C(=O)O)ccc21` [Example 31, 8-(2,4-difluorophenyl)-9-(2-fluoro-4-((1-(3-fluoropropyl)azetidin-3-ylidene)methyl)-6-methylphenyl)-6,7-dihydro-5H-benzo[7]annulene-3-carboxylic acid] were 92% and 0.8 nM.
Regarding `O=C(O)c1ccc2c(c1)CCCC(c1cccc(F)c1C(F)(F)F)=C2c1ccc(C=C2CN(CCC(F)F)C2)cc1` [Example 26, 9-(4-((1-(3,3-difluoropropyl)azetidin-3-ylidene)methyl)phenyl)-8-(3-fluoro-2-(trifluoromethyl)phenyl)-6,7-dihydro-5H-benzo[7]annulene-3-carboxylic acid], the “% Degradation At 0.3 μM” value was 91% and the DC50 was 0.4 nM.
`Cl.O=C(O)c1ccc2c(c1)CCCC(c1ccc(Cl)cc1Cl)=C2c1ccc(C=C2CN(CCCF)C2)c(F)c1` [Example 103, 8-(2,4-dichlorophenyl)-9-(3-fluoro-4-((1-(3-fluoropropyl)azetidin-3-ylidene)methyl)phenyl)-6,7-dihydro-5H-benzo[7]annulene-3-carboxylic acid hydrochloride]: the “% Degradation At 0.3 μM” value is on record as 92% and the DC50 was found to be 0.2 nM.
On to `Cc1c(Cl)ccc(C2=C(c3ccc(C=C4CN(CCCF)C4)cc3)c3ccc(C(=O)O)cc3CCC2)c1C` [Example 82, 8-(4-chloro-2,3-dimethylphenyl)-9-(4-((1-(3-fluoropropyl)azetidin-3-ylidene)methyl)phenyl)-6,7-dihydro-5H-benzo[7]annulene-3-carboxylic acid], for which the “% Degradation At 0.3 μM” value came out at 90% and the DC50 amounted to 0.5 nM.
